Source: patent publication US7384934B2, “Piperazine substituted aryl benzodiazepines” (Eli Lilly and Company, priority 2002, dated 2008)
Structures can show the parent of a compound that is named as a salt.

Experiments:
[1] = target: T1, hypothalamic histamine H1 receptors (Rattus norvegicus, UniProt P31390); experiment: Histamine H1 ex vivo binding ([3H]-pyrilamine, rat hypothalamic homogenates); assay type: in vivo; settings: rat hypothalamus; dose required to occupy 50% of histamine H1 receptors; 90 minutes after gavage
T1 construct: from tissue; host or cells: hypothalamus of male Sprague Dawley rats
T1 sequence (P31390 whole entry): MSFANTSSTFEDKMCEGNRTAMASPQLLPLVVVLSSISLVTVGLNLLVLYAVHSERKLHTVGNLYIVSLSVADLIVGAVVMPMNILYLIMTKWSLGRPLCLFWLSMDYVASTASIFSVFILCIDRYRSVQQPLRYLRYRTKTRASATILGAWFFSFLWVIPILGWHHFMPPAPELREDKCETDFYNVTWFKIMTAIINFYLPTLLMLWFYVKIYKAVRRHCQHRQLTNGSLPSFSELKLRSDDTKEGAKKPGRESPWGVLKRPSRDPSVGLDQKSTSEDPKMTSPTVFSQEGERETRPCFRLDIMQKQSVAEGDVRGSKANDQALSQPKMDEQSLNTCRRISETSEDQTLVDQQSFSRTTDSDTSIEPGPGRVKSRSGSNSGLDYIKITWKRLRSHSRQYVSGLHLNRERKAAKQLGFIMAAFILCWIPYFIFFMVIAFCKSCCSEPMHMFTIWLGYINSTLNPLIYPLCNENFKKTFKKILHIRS
Method: The in vivo potency of a compound to occupy hypothalamic histamine H1 receptors in the rat was determined using a histamine H1 ex vivo binding assay.
(§1) Male Sprague Dawley rats (Harlan Sprague Dawley, Inc., Indianapolis, Ind.) weighing 110 grams were fasted overnight. […] All other compounds were administered at 5 ml/kg in dilute lactic acid. Tissues were dissected, frozen on dry ice and stored at −70° C. prior to analysis.
Ex vivo binding of the histamine H1 antagonist [^3H]-pyrilamine (NEN Life Science Products) to rat hypothalamic homogenates was determined. Tissues were homogenized in 600 μl incubation buffer (50 mM sodium phosphate monobasic, pH 7.4) and pre-incubated 10 minutes at 37° C. to remove endogenous histamine. Triplicate tubes, each containing 100 μl homogenate, were combined with 1 ml buffer containing 3 nM [^3H]-pyrilamine and incubated 30 minutes at 25° C. […] [^3H]-pyrilamine binding was measured after separation filtration using a Brandell cell harvester with GF/C filters which had been soaked in 0.1% polyethylenimine. ED50 values were determined using the Allfit statistical program for displacement binding.

[2] = target: T2, dopamine D2 receptors (Rattus norvegicus, UniProt P61169); experiment: DOPAC concentrations in rat nucleus accumbens (in vivo D2 receptor blockade); settings: dose that increases DOPAC to 200% of control, 90 minutes after gavage
T2 construct: from tissue; host or cells: male Sprague Dawley rats, nucleus accumbens (in vivo)
T2 sequence (P61169 whole entry): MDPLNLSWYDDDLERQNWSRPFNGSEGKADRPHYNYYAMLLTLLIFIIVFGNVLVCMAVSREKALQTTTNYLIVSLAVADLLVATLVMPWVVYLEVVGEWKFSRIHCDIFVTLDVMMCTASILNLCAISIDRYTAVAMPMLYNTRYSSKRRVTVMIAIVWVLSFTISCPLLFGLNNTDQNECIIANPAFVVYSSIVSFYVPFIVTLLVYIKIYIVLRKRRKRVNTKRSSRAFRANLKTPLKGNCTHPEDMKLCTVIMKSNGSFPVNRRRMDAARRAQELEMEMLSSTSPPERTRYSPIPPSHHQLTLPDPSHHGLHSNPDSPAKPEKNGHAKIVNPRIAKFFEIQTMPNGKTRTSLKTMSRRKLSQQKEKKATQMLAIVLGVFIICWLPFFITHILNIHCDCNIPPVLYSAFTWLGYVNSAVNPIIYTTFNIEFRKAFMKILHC
Method: Antipsychotics are believed to exert at least part of their therapeutic effects through blockade of the dopamine D2 receptor. The ability of a compound to block dopamine D2 receptors in the rat in vivo was determined by measuring the effect of the compound on the level of DOPAC (3,4-dihydroxyphenylacetic acid), a metabolite of dopamine, in nucleus accumbeus of the rat. Dopamine D2 receptor antagonists increase the release of dopamine into the synapse due to blockade of the dopamine D2 autoreceptor. This increased release of dopamine cannot be directly measured, since the efficiency of the dopamine reuptake system prevents increases in synaptic dopamine concentrations. Instead, increases in the levels of the dopamine metabolites DOPAC (3,4-dihydroxyphenylacetic acid) and HVA (homovanillic acid) reflect increased neuronal dopaminergic activity in vivo.
as §1
Rat nucleus accumbens DOPAC (3,4-dihydroxyphenylacetic acid) concentrations were measured using high-pressure liquid chromatography with electrochemical detection (HPLC-EC). Tissues were sonicated in 1 ml 0.1N TCA. After centrifugation, a 25 µl aliquot of supernatant was injected onto a BDS Hypersyl C18 column (150×4.6 mm, Keystone Scientific). The elution buffer contained 75 mM sodium phosphate monobasic, 0.5 mM EDTA, 350 mg/L 1-octanesulfonate sodium, 7% acetonitrile (v/v) and 0.7% tetrahydrofuran (v/v), pH 3.0. The flow rate was 1.2 ml/min at 40° C. Peak heights were measured at 750 mV at 10 nA sensitivity and compared with samples containing known amounts of DOPAC standards.

[3] = target: T3, Dopamine D2 receptor (Homo sapiens, UniProt P14416); experiment: Dopamine D2 receptor binding assay ([125I]iodospiperone); settings: read-out: Receptor affinity (Ki, nM) D2
T3 construct: purchased Receptor Biology (now owned by NEN) RBHD2CM
T3 sequence (P14416 1-414 isoform P14416-2): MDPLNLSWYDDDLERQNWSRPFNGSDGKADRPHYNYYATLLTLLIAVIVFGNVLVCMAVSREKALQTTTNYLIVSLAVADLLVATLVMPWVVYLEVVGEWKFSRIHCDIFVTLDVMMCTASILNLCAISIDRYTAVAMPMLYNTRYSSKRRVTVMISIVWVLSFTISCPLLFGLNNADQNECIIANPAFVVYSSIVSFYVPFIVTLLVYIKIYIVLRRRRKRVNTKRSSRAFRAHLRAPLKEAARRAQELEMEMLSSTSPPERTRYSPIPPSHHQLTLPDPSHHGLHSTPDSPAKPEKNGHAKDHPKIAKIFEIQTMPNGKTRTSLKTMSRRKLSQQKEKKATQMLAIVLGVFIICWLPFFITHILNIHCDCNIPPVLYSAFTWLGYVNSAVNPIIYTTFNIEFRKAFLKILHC

[4] = target: T4, human Histamine-1 receptors (Homo sapiens, UniProt P35367); experiment: 3H-Pyrilamine SPA binding to human Histamine-1 receptors; settings: read-out: Receptor affinity (Ki, nM) H1
T4 construct: expressed in transfected cells
T4 sequence (P35367 whole entry): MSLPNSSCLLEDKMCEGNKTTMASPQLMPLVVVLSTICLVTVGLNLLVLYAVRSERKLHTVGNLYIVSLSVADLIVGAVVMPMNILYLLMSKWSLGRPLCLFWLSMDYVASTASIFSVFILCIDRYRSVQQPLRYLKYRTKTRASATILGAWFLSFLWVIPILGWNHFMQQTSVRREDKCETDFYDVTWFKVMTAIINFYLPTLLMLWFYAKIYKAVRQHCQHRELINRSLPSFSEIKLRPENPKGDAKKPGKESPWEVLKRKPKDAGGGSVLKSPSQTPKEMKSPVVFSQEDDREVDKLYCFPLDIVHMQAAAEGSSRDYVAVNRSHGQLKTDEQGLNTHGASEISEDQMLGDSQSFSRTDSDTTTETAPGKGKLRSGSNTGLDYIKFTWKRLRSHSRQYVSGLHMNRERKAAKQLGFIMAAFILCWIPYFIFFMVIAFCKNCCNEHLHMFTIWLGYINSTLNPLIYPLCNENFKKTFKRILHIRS
Method: Their ability of a compound to block histamine H1 receptors can be estimated in vitro by measuring the in vitro histamine H1 receptor affinity. […] The ratio of in vitro histamine H1 receptor affinity divided by the in vitro dopamine D2 receptor affinity, both expressed as Ki's, is an estimate of a compound's likelihood to cause weight gain at therapeutic levels. […] Incubations were performed in a total volume of 200 μl in 96 well assay plates. 50 μl ^3H-pyrilamine (NEN, 20 Ci/mmol, final concentration=3.0 nM) was added to 50 μl of test compounds dissolved in water (±DMSO and/or glacial acetic acid). 50 μl Wheat Germ Agglutinin (WGA) bead, at 1 mg/well, (Amersham Life Sciences) in assay buffer (67 mM TrisCl pH 7.4) were then added. Membrane homogenate from cells expressing human Histamine-1 receptors, approximately 700,000 cells/well, was added last. The plates were covered with sealing tape (FasCal) and allowed to incubate at room temperature for 2 hours. The plates were then centrifuged at approximately 200×g for 10 minutes at room temperature. The amount of ^3H-pyrilamine bound to the membranes, ie proximate to the WGA bead, was then determined using a Wallac MicroBeta Trilux Scintillation Counter (Wallac, Inc.).

Question: With `COCC[C@H]1CN(C2=Nc3ccc(F)cc3Nc3sc(C)cc32)CCN1C` [Example 279, (S)-6-Fluoro-10-[3-(2-methoxy-ethyl)-4-methyl-piperazin-1-yl]-2-methyl-4H-3-thia-4,9-diaza-benzo[f]azulene hydrochloride] as the compound, how does the “In vivo activity H1: H1 ex vivo binding (ED50)” value [1] read?
Answer: The value was >30 mg/kg, po.

Question: And the “In vivo activity D2: DOPAC elevation (ED200)” value [2]?
Answer: Its value is 6 mg/kg, po.

Question: What about the Ki [3] of the same compound?
Answer: Its Ki is 6 nM.

Question: What about the Ki [4] of the same compound?
Answer: Its Ki is 24 nM.
